Experimental data published in patent publication US20260209242A1, “CAMPTOTHECIN DERIVATIVE, PHARMACEUTICAL COMPOSITION, AND PREPARATION METHOD AND USE THEREFOR” (priority 2022, published 2026).
≈ marks a conversion by molar mass, not a printed value. Like-named read-outs stand apart in the source and are kept apart here.

Assays:
[1] = Kinetic solubility test in PBS 7.4; format: physicochemical; conditions: for solubility at 2 h: 25 °C, pH 7.4, aqueous buffer, kinetic from dmso stock
Protocol: 10 mM stock solutions of the test substances 6-2, 11-2, 17-2, Dxd, and the control drugs progesterone and diclofenac were prepared using DMSO respectively.
15 μL of 10 mM stock solution of each of the test substances was added to a corresponding position of a corresponding 96-well plate in a specified sequence. 485 μL of the PBS 7.4 was added to a corresponding vial on a sample plate. The experiment was run in duplicate. Each vial was additionally provided with a stirring rod and was plugged. Then, the sample plate was transferred in a thermostatic mixer, and oscillated at a revolving speed of 1,100 rpm at 25° C. for 2 h. 2 h later, the plug was removed, the stirring rod was attracted away with a large magnet, and then the sample was transferred from the sample plate to the filter plate. Negative pressure was generated using a vacuum pump to filter the sample. 5 μL of filtrate and 5 μL of blank DMSO were transferred to another sample plate, and then 490 μL of internal standard water (acetonitrile:water=1:1) containing the internal standard was added. Depending on peak shapes, a certain proportion of internal standard water may be used to dilute the sample diluent to obtain better peak shapes.
6 μL was transferred from the 10 mM DMSO stock solution plate to a blank plate, and was prepared into a 300 μM standard substance solution with addition of 194 μL of DMSO. 5 μL was transferred from the 300 μM standard substance solution plate to still another blank plate, and then 5 μL of blank buffer and 490 μL of the internal standard water containing the internal standard (acetonitrile:water=1:1) were added until a final concentration of the standard substance solution was 3 μM.
An injection plate was transferred on an injection tray of an autosampler to evaluate the sample by LC/MS analysis.
All calculations were performed using Microsoft Excel.
The sample filtrate was analyzed and quantified by qualitative and quantitative LC/MS of standard substance peaks at known concentrations. The calculation formula for the solubility values of the reference drugs and the test substances are as follows:
[Sample] is the compound concentration, DFSample refers to the sample dilution factor, [STD] is the standard substance concentration of the compound, AREAStd is the standard substance peak area of the compound, and AREASample is the peak area of the compound sample.

[2] = Stability of compounds in human plasma; format: in vitro ADME; conditions: 5 μmol/L
CYP1A2 = molecular target: T1, CYP1A2 (Homo sapiens, UniProt P05177); assay: Inhibition on human hepatomicrosomes CYP1A2
T1 sequence (P05177 1-516): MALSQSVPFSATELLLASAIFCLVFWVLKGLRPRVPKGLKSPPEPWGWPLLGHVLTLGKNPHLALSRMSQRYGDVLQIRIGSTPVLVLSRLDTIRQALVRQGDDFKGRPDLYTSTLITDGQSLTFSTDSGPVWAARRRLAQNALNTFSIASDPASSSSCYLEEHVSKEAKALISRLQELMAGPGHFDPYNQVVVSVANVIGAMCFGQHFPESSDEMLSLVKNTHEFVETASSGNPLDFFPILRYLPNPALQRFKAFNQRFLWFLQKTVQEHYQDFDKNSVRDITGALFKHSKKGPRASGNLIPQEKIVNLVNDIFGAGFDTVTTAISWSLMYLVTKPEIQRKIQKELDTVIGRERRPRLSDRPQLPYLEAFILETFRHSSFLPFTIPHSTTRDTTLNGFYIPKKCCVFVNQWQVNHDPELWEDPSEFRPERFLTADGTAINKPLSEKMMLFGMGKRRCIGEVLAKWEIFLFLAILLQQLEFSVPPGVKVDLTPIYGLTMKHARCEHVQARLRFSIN

CYP2D6 = CYP2D6 (Homo sapiens, UniProt P10635); assay: Inhibition on human hepatomicrosomes CYP2D6
[3] = Pharmacokinetic test in SD rats; conditions: male, Sprague-Dawley (SD), rat, in vivo, iv, 2 mg/kg
Protocol: After a single intravenous injection (dose: 2 mpk) of the compounds 6-2, 11-2, 17-2, and Dxd into male SD rats (blood collection time points: 0.083 h, 0.25 h, 0.5 h, 1 h, 2 h, 4 h, 8 h, and 24 h after IV administration, totaling 8 blood collection time points), average pharmacokinetic parameters in the plasma are as shown in Table 5: […]

[4] = Stability of compounds in human plasma; format: in vitro ADME; conditions: for Residual percentage (%) 1 h / Residual percentage (%) 2 h / Residual percentage (%) 6 h / Residual percentage (%) 24 h: 5 μmol/L
Protocol: • (1) 199 μL of human plasma was added to the culture plate of each cell. The culture plate was preheated to 37° C., and kept at this temperature for 15 min. • (2) After preincubation, 1 μL of 1 mmol/L each test compound and 1 μL of 1 mmol/L control compound were added to 199 μL of plasma, so that a final concentration of each test compound was 5 μmol/L and that of the control compound was 5 gmol/L. The final concentration of the organic solvent was 0.5%. The experiment would be duplicated twice. • (3) Reaction samples were incubated at 37° C. • (4) The reaction was stopped by adding 600 μL of cold methanol containing the internal standard at 0, 1, 2, 6, and 24 h. Each sample was vortex mixed for 10 min, and then centrifuged at 3,220 g for 30 min to precipitate the protein. […] Based on the signal response and peak shapes of liquid chromatography-mass spectrometry (LC-MS), the supernatant would be diluted with ultrapure water.
All calculations were performed using Microsoft Excel. The peak area ratio was determined from the chromatogram of extracted ions. The percentage of compounds remaining at each time point was calculated as per the following formula: […]

CYP3A4 = molecular target: T2, CYP3A4 (Homo sapiens, UniProt P08684); assay: Inhibition on human hepatomicrosomes CYP3A4; format: in vitro ADME
T2 construct: from tissue; host or cells: human liver microsomes

[5] = read-out: 3A4M (IC50 μM), human hepatomicrosomes, substrate midazolam

T2 sequence (P08684 whole entry): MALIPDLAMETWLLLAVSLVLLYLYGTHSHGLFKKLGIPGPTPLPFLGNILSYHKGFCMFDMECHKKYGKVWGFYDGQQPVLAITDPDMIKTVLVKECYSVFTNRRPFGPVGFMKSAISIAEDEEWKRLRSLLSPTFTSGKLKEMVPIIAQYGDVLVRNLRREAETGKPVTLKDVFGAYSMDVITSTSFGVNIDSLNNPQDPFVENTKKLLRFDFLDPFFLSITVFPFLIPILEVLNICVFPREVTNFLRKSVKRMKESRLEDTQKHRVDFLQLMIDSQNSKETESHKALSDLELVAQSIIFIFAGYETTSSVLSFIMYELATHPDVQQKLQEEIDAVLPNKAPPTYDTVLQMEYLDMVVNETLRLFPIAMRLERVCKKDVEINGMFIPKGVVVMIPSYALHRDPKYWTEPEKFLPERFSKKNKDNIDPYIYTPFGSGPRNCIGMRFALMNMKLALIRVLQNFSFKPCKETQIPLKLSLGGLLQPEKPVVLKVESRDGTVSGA
Chain of CYP2D6 (P10635 whole entry): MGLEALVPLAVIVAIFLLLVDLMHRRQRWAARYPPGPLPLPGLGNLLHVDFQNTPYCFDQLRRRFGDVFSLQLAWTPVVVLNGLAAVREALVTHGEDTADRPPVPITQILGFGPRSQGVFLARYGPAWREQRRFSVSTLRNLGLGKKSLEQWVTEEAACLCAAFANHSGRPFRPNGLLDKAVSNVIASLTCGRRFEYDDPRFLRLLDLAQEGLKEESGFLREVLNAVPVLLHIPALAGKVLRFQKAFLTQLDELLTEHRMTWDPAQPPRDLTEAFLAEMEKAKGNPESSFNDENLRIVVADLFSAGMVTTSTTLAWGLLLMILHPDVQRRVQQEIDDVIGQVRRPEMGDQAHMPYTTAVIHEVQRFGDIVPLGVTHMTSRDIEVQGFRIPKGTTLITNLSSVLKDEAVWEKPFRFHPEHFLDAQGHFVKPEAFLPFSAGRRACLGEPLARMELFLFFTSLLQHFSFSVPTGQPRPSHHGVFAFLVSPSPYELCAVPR

Row | SMILES | solubility in the PBS 7.4 compared with Dxd (in words) [1] | solubility at 2 h [1] [µM] | Residual percentage (%) 4 h [2] [%] | IC50 (CYP1A2) [µM] | IC50 (CYP2D6) [µM] | AUC(0-inf) [3] [ng·h/mL] | AUC(0-t) [3] [ng·h/mL] | C0 [3] [ng/mL] | Vd [3] [L/kg] | clearance [3] [mL/min/kg] | half-life [3] [h] | Residual percentage (%) 1 h [4] [%] | Residual percentage (%) 2 h [4] [%] | Residual percentage (%) 6 h [4] [%] | Residual percentage (%) 24 h [4] [%] | stability in human plasma (in words) [4] | IC50 (CYP3A4) [µM] | IC50 (CYP3A4; [5]) [µM]
1 | CC[C@@]1(O)C(=O)OCc2c1cc1n(c2=O)Cc2c-1nc1cc(F)c(C)c3c1c2C(NC(=O)C[C@@H](C)O)CCC3 (single isomer, unassigned) [Compound 6-2] | significantly better solubility in the PBS 7.4 than Dxd | 170 (≈ 91 µg/mL) | 93.65 | > 30 | > 30 | 318 | 314 | 677 | 2.93 | 108 | 0.39 | 96.62 | 86.16 | 88.99 | 87.01 | good stability in human plasma | > 30 | > 30
2 | CC[C@@]1(O)C(=O)OCc2c1cc1n(c2=O)Cc2c-1nc1cc(F)c(C3CC3)c3c1c2C(NC(=O)C[C@@H](C)O)CC3 (single isomer, unassigned) [Compound 17-2] | – | 1.7 (≈ 0.931 µg/mL) | 93.75 | > 30 | > 30 | 2730 | 2250 | 2690 | 1.4 | 12.3 | 1.64 | 90.07 | 89.34 | 97.06 | 102.21 | good stability in human plasma | > 30 | > 30
